The source of these data is patent publication US9677045B2, “Microorganisms and methods for production of 4-hydroxybutyrate, 1,4-butanediol and related compounds” (priority 2012, dated 2017).

For data set [1], the system named is BCKA in Bacillus subtilis. The note with it: decarboxylation; cited from earlier work.
For data set [2] the following is noted: cytoplasmic pH, typically 7.4; cited from earlier work.
Data set [3] has as its target T1, phosphotransbutyrylase (PTB) (Clostridium acetobutylicum, UniProt P58255).
T1 construct: made in house; host or cells: E. coli, plasmid pZA33-0020-0021, cell extract
T1 sequence (P58255 1-301): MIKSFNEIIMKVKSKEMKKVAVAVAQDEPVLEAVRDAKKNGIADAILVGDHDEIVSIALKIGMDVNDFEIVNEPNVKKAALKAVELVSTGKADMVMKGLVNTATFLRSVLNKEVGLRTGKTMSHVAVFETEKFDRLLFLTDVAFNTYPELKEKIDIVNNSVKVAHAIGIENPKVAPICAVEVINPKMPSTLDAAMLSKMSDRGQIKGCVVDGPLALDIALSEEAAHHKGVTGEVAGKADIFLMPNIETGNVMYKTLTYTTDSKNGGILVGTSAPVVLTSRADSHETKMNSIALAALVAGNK
Nature of the data set: PTB enzyme activity, butyryl-CoA to butyryl-phosphate (DTNB). The data set is classed as biochemical. Conditions: extracts of cells with native ptb/bk operon (0020, 0021) in pZA33. The method, then: The enzyme activity of PTB is measured in the direction of butyryl-CoA to butyryl-phosphate as described in Cary et al. J. Bacteriol. 170:4613-4618 (1988). It provides inorganic phosphate for the conversion, and follows the increase in free CoA with the reagent 5,5′-dithiobis-(2-nitrobenzoic acid), or DTNB. DTNB rapidly reacts with thiol groups such as free CoA to release the yellow-colored 2-nitro-5-mercaptobenzoic acid (TNB), which absorbs at 412 nm with a molar extinction coefficient of 14,140 M cm^−1. The assay buffer contained 150 mM potassium phosphate at pH 7.4, 0.1 mM DTNB, and 0.2 mM butyryl-CoA, and the reaction was started by addition of 2 to 50 μL cell extract. The enzyme activity of BK is measured in the direction of butyrate to butyryl-phosphate formation at the expense of ATP. The procedure is similar to the assay for acetate kinase previously described Rose et al., J. Biol. Chem. 211:737-756 (1954). […] This assay links conversion of ATP to ADP by acetate kinase to the linked conversion of ADP and phosphoenolpyruvate (PEP) to ATP and pyruvate by pyruvate kinase, followed by the conversion of pyruvate and NADH to lactate and NAD+ by lactate dehydrogenase. […] The reaction was started by adding 2 to 50 μL cell extract, and the reaction was monitored based on the decrease in absorbance at 340 nm indicating NADH oxidation. […]

For data set [4], the target named is T2, endogenous alcohol dehydrogenase (yjgB) (Escherichia coli, UniProt P27250).
T2 sequence (P27250 1-339): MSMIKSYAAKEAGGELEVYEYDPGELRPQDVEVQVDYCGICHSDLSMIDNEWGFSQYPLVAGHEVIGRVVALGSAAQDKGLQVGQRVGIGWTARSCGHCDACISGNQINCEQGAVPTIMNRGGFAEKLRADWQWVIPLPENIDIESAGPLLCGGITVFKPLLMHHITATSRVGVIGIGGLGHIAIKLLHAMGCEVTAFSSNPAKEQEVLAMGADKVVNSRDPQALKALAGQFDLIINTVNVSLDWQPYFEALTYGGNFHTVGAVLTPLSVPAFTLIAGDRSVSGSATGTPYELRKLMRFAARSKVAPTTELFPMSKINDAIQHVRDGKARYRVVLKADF
The note with it: purified protein, in the presence of NADP+; FIG. 85.
Experimental: The sample was purified while following the backflux activity.
A fresh sample of 1427 cells from a 2 L LB preparation grown aerobically overnight was lysed using the microfluidizer at 15,000 psi. The sample was then fractionated via ammonium sulfate.
The 60% ammonium sulfate pellet was resuspended in a low salt buffer and dialyzed overnight to remove the residual ammonium sulfate. The sample was loaded onto a 5 ml Q-sepharose column (strong anion exchange) and eluted via a slow increasing salt gradient.
The peak backflux activity from anion exchange was pooled and concentrated to allow for application to a S200 sephacryl size exclusion column.
The peak with the highest backflux activity from the size exclusion column was pooled and loaded on a phenyl sepharose column (hydrophobic interaction column). The ionic strength of the sample was increased to facilitate binding to the resin.

For the molecule `O=C(O)CCC(=O)C(=O)O` [2-Oxoglutarate], the “activity relative to other branched-chain substrates” value in data set [1] is 5%.
On to `O=C1CCCO1` [GBL, γ-butyrolactone], for which, in data set [2], the lactone/hydroxyacid equilibrium entry was “hydrolysis of the GBL lactone is favored”.

B1: PTB: phosphotransbutyrylase from C. acetobutylicum (gene 0020) (protein, UniProt P58255 1-301, looked up)
Phosphate butyryltransferase: T1 sequence (P58255 1-301)
For the molecule B1, the “specific activity of PTB” value in data set [3] is “approximately 5 U/mg”.

B2: yjgB: E. coli alcohol dehydrogenase yjgB, cloned with a streptavidin tag and purified (protein, UniProt P27250 1-339, looked up)
Aldehyde reductase Ahr: T2 sequence (P27250 1-339)
modifications: streptavidin tag
Turning to B2, the “activity with BDO as a substrate” value in data set [4] is on record as “robust activity was confirmed”.
